biological target: T1, SHP2 (Homo sapiens, UniProt Q06124); assay: SHP2 allosteric inhibitor enzyme activity assay (DiFMUP fluorescence); format: biochemical; conditions: class symbols
T1 sequence (Q06124 1-593): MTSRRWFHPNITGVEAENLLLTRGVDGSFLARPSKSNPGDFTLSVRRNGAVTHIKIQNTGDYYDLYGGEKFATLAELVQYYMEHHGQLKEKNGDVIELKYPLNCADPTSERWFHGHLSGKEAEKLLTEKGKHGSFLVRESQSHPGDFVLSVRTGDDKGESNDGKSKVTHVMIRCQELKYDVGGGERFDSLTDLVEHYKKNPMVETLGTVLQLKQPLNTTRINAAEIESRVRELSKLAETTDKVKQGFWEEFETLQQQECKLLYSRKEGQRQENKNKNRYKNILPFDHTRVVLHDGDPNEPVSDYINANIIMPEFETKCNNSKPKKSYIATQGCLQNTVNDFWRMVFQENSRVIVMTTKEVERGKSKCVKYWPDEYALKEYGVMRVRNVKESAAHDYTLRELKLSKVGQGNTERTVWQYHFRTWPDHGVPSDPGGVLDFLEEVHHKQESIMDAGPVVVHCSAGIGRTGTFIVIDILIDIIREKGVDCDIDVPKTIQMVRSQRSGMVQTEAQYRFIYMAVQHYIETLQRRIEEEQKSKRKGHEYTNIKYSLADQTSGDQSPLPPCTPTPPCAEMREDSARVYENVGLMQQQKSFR
Outline: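 SHP2 activated by 0.5 μM IRS1_pY1172(dPEG8)pY1222 peptide, 0.2 ng enzyme per well, 1 h at room temperature with compound (1 μM top, 3-fold series), then DiFMUP substrate 1 h. Buffer: 60 mM HEPES, 75 mM NaCl, 75 mM KCl, 0.05% BRIJ-35, 1 mM EDTA, 5 mM DTT. Fluorescence ex 340/em 450 nm; IC50 by variable-slope fit.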

Row | Structure (SMILES) | IC50 [nM]
1 | N[C@@H]1c2ccccc2CC12CCN(c1nc3[nH]nc(C4(c5ccnc(N6CCOCC6)c5)CC4)c3c(=O)[nH]1)CC2 [Example 31, (S)-6-(1-amino-1,3-dihydrospiro[indene-2,4′-piperidin]-1′-yl)-3-(1-(2-morpholinopyridin-4-yl)cyclopropyl)-1,5-dihydro-4H-pyrazolo[3,4-d]pyrimidin-4-one] | 20 to 60
2 | C[C@@H]1OCC2(CCN(c3ncc(C4(c5ccccc5)CC4)c(=O)n3C)CC2)[C@@H]1N [Example 263, 2-((3S,4S)-4-amino-3-methyl-2-oxa-8-azaspiro[4.5]decan-8-yl)-3-methyl-5-(1-phenylcyclopropyl)pyrimidin-4(3H)-one] | > 60
3 | CCOC(=O)Nc1ccc(C2(c3n[nH]c4nc(N5CCC6(CC5)CO[C@@H](C)[C@H]6N)[nH]c(=O)c34)CC2)cc1 [Example 303, ethyl(4-(1-(6-((3S,4S)-4-amino-3-methyl-2-oxa-8-azaspiro[4.5]decan-8-yl)-4-oxo-4,5-dihydro-1H-pyrazolo[3,4-d]pyrimidin-3-yl)cyclopropyl)phenyl)carbamate] | 20 to 60
4 | Cc1nc(N2CCC3(CC2)CO[C@@H](C)[C@H]3N)c(CO)nc1C1(c2ccccc2)CC1 [Example 261, (3-((3S,4S)-4-amino-3-methyl-2-oxa-8-azaspiro[4.5]decan-8-yl)-5-methyl-6-(1-phenylcyclopropyl)pyrazin-2-yl)methanol] | > 60
5 | C[C@@H]1OCC2(CCN(c3nc4[nH]nc(C5(c6ccc(F)cc6)CC5)c4c(=O)[nH]3)CC2)[C@@H]1N [Example 292, 6-((3S,4S)-4-amino-3-methyl-2-oxa-8-azaspiro[4.5]decan-8-yl)-3-(1-(4-fluorophenyl)cyclopropyl)-1,5-dihydro-4H-pyrazolo[3,4-d]pyrimidin-4-one] | 20 to 60
6 | N[C@@H]1CCCC12CCN(c1nc3[nH]nc(C4(c5ccccc5)CC4)c3c(=O)[nH]1)CC2 [Example 321, (R)-6-(1-amino-8-azaspiro[4.5]decan-8-yl)-3-(1-phenylcyclopropyl)-1,5-dihydro-4H-pyrazolo[3,4-d]pyrimidin-4-one] | 20 to 60
7 | N[C@@H]1c2ccccc2CC12CCN(c1nc3[nH]nc(C4(c5ccccc5)CCCCC4)c3c(=O)[nH]1)CC2 [Example 99, (S)-6-(1-amino-1,3-dihydrospiro[indene-2,4′-piperidin]-1′-yl)-3-(1-phenylcyclohexyl)-1,5-dihydro-4H-pyrazolo[3,4-d]pyrimidin-4-one] | 20 to 60
8 | C[C@@H]1OCC2(CCN(c3nc4[nH]nc(C5(c6ncco6)CC5)c4c(=O)[nH]3)CC2)[C@@H]1N [Example 279, 6-((3S,4S)-4-amino-3-methyl-2-oxa-8-azaspiro[4.5]decan-8-yl)-3-(1-(oxazol-2-yl)cyclopropyl)-1,5-dihydro-4H-pyrazolo[3,4-d]pyrimidin-4-one] | 20 to 60
9 | Cn1c(N2CCC3(CC2)Cc2ccccc2[C@H]3N)nc2[nH]nc(C3(c4ccccc4)CCC3)c2c1=O [Example 91, (S)-6-(1-amino-1,3-dihydrospiro[indene-2,4′-piperidin]-1′-yl)-5-methyl-3-(1-phenylcyclobutyl)-1,5-dihydro-4H-pyrazolo[3,4-d]pyrimidin-4-one] | ≤ 20
10 | COc1cc(F)cc(C2(c3n[nH]c4nc(N5CCC6(CC5)CO[C@@H](C)[C@H]6N)[nH]c(=O)c34)CC2)c1 [Example 288, 6-((3S,4S)-4-amino-3-methyl-2-oxa-8-azaspiro[4.5]decan-8-yl)-3-(1-(3-fluoro-5-methoxyphenyl)cyclopropyl)-1,5-dihydro-4H-pyrazolo[3,4-d]pyrimidin-4-one] | > 60

The next lines start with the values.

Row | IC50 [nM] | Structure (SMILES)
11 | ≤ 20 | CC1(C)Cc2nc(C(F)(F)F)ccc2C(c2n[nH]c3nc(N4CCC5(CC4)Cc4ccccc4[C@H]5N)[nH]c(=O)c23)=C1F [Example 189, (S)-6-(1-amino-1,3-dihydrospiro[indene-2,4′-piperidin]-1′-yl)-3-(6-fluoro-7,7-dimethyl-2-(trifluoromethyl)-7,8-dihydroquinolin-5-yl)-1,5-dihydro-4H-pyrazolo[3,4-d]pyrimidin-4-one]
12 | ≤ 20 | N[C@@H]1c2ccccc2CC12CCN(c1nc3[nH]nc(C4=CC5(COC5)c5ccccc54)c3c(=O)[nH]1)CC2 [Example 170, (S)-6-(1-amino-1,3-dihydrospiro[indene-2,4′-piperidin]-1′-yl)-3-(spiro[indene-1,3′-oxetan]-3-yl)-1,5-dihydro-4H-pyrazolo[3,4-d]pyrimidin-4-one]
13 | ≤ 20 | N[C@@H]1c2ccccc2CC12CCN(c1nc3[nH]nc(C4(c5ccnc(OC6CC6)c5)CC4)c3c(=O)[nH]1)CC2 [Example 30, (S)-6-(1-amino-1,3-dihydrospiro[indene-2,4′-piperidin]-1′-yl)-3-(1-(2-cyclopropoxypyridin-4-yl)cyclopropyl)-1,5-dihydro-4H-pyrazolo[3,4-d]pyrimidin-4-one]
14 | ≤ 20 | Nc1nccc(C2(c3n[nH]c4nc(N5CCC6(CC5)Cc5ccccc5[C@H]6N)[nH]c(=O)c34)CC2)c1F [Example 59, (S)-6-(1-amino-1,3-dihydrospiro[indene-2,4′-piperidin]-1′-yl)-3-(1-(2-amino-3-fluoropyridin-4-yl)cyclopropyl)-1,5-dihydro-4H-pyrazolo[3,4-d]pyrimidin-4-one]
15 | ≤ 20 | CN(C)c1nccc(C2(c3n[nH]c4nc(N5CCC6(CC5)Cc5ccccc5[C@H]6N)[nH]c(=O)c34)CC2)c1Cl [Example 61, (S)-6-(1-amino-1,3-dihydrospiro[indene-2,4′-piperidin]-1′-yl)-3-(1-(3-chloro-2-(dimethylamino)pyridin-4-yl)cyclopropyl)-1,5-dihydro-4H-pyrazolo[3,4-d]pyrimidin-4-one]
16 | ≤ 20 | Cn1ccc(-c2cc(C3(c4n[nH]c5nc(N6CCC7(CC6)Cc6ccccc6[C@H]7N)[nH]c(=O)c45)CC3)ccn2)n1 [Example 88, (S)-6-(1-amino-1,3-dihydrospiro[indene-2,4′-piperidin]-1′-yl)-3-(1-(2-(1-methyl-1H-pyrazol-3-yl)pyridin-4-yl)cyclopropyl)-1,5-dihydro-4H-pyrazolo[3,4-d]pyrimidin-4-one]
17 | ≤ 20 | CSc1ccc2c(c1)[C@@H](N)C1(CCN(c3nc4[nH]nc(C5(c6ccccc6)CC5)c4c(=O)[nH]3)CC1)C2 [Example 196, (S)-6-(1-amino-6-(methylthio)-1,3-dihydrospiro[indene-2,4′-piperidin]-1′-yl)-3-(1-phenylcyclopropyl)-1,5-dihydro-4H-pyrazolo[3,4-d]pyrimidin-4-one]
18 | ≤ 20 | N[C@@H]1c2ccccc2CC12CCN(c1nc3[nH]nc(C4(c5ccsc5)CC4)c3c(=O)[nH]1)CC2 [Example 236, (S)-6-(1-amino-1,3-dihydrospiro[indene-2,4′-piperidin]-1′-yl)-3-(1-(thiophen-3-yl)cyclopropyl)-l,5-dihydro-4H-pyrazolo[3,4-d]pyrimidin-4-one]
19 | 20 to 60 | N[C@@H]1c2ccccc2CC12CCN(c1nc3[nH]nc(C4(c5nc6ccccc6[nH]5)CC4)c3c(=O)[nH]1)CC2 [Example 251, (S)-3-(1-(1H-benzo[d]imidazol-2-yl)cyclopropyl)-6-(1-amino-1,3-dihydrospiro[indene-2,4′-piperidin]-1′-yl)-1,5-dihydro-4H-pyrazolo[3,4-d]pyrimidin-4-one]
20 | ≤ 20 | Cc1cccc(C2(c3n[nH]c4nc(N5CCC6(CC5)Cc5ccccc5[C@H]6N)[nH]c(=O)c34)CC2)n1 [Example 248, (S)-6-(1-amino-1,3-dihydrospiro[indene-2,4′-piperidin]-1′-yl)-3-(1-(6-methylpyridin-2-yl)cyclopropyl)-1,5-dihydro-4H-pyrazolo[3,4-d]pyrimidin-4-one]
21 | ≤ 20 | N[C@@H]1c2ccccc2CC12CCN(c1nc3[nH]nc(C4=C(F)CCc5nc(C(F)(F)F)ccc54)c3c(=O)[nH]1)CC2 [Example 187, (S)-6-(1-amino-1,3-dihydrospiro[indene-2,4′-piperidin]-1′-yl)-3-(6-fluoro-2-(trifluoromethyl)-7,8-dihydroquinolin-5-yl)-1,5-dihydro-4H-pyrazolo[3,4-d]pyrimidin-4-one]
22 | ≤ 20 | N[C@@H]1c2ccccc2CC12CCN(c1nc3[nH]nc(C4(c5cccc(OC6CC6)c5)CC4)c3c(=O)[nH]1)CC2 [Example 227, (S)-6-(1-amino-1,3-dihydrospiro[indene-2,4′-piperidin]-1′-yl)-3-(1-(3-cyclopropoxyphenyl)cyclopropyl)-1,5-dihydro-4H-pyrazolo[3,4-d]pyrimidin-4-one]
23 | ≤ 20 | N[C@@H]1c2ccccc2CC12CCN(c1nc3[nH]nc(C4(c5ccnc(N6CCC6)c5Cl)CC4)c3c(=O)[nH]1)CC2 [Example 66, (S)-6-(1-amino-1,3-dihydrospiro[indene-2,4′-piperidin]-1′-yl)-3-(1-(2-(azetidin-1-yl)-3-chloropyridin-4-yl)cyclopropyl)-1,5-dihydro-4H-pyrazolo[3,4-d]pyrimidin-4-one]
24 | ≤ 20 | N[C@@H]1c2ccccc2CC12CCN(c1nc3[nH]nc(C4=CCOc5cc(C(F)(F)F)ccc54)c3c(=O)[nH]1)CC2 [Example 168, (S)-6-(1-amino-1,3-dihydrospiro[indene-2,4′-piperidin]-1′-yl)-3-(7-(trifluoromethyl)-2H-chromen-4-yl)-1,5-dihydro-4H-pyrazolo[3,4-d]pyrimidin-4-one]

— patent US20230192705A1, “SHP2 INHIBITORS, COMPOSITIONS AND USES THEREOF” (Betta Pharmaceuticals Co., Ltd, priority 2020, published 2023)
